Source: ChEMBL document CHEMBL1909046, “DrugMatrix in vitro pharmacology data”

Legend:
[1] = DRUGMATRIX: Potassium Channel [KATP] radioligand binding (ligand: [3H] Glyburide); format: cell membranes, Membrane; details: hit-t15, Not Active = under 50% inhibition at 10 µM
[2] = biological target: 5-hydroxytryptamine receptor 4 (Cavia porcellus, UniProt O70528); format: cell membranes, Dunkin-Hartley, Striatum, Membrane; note: in other assays of this panel Not Active means under 50% inhibition at 10 µM
[3] = DRUGMATRIX: Purinergic P2X radioligand binding (ligand: [3H] alpha, beta-Methylene-ATP); format: cell membranes, Oryctolagus cuniculus, New Zealand albino, Urinary bladder, Membrane; details: Not Active = under 50% inhibition at 10 µM
Melanocortin receptor 3 = Melanocortin receptor 3 (Homo sapiens, UniProt P41968); format: cell membranes, HEK293, Membrane; details: hek293; note: in other assays of this panel Not Active means under 50% inhibition at 10 µM
D(3) dopamine receptor = D(3) dopamine receptor (Homo sapiens, UniProt P35462); assay: DRUGMATRIX: Dopamine D3 radioligand binding (ligand: [3H] Spiperone); format: cell membranes, CHO, Membrane
Cytochrome P450 2C19 = Cytochrome P450 2C19 (Homo sapiens, UniProt P33261); details: bti-tn-5b1-4; note: in other assays of this panel Not Active means under 50% inhibition at 10 µM
Cytochrome P450 2E1 = Cytochrome P450 2E1 (Homo sapiens, UniProt P05181); details: bti-tn-5b1-4; note: in other assays of this panel Not Active means under 50% inhibition at 10 µM
Sequence of Cytochrome P450 2E1 (P05181 whole entry): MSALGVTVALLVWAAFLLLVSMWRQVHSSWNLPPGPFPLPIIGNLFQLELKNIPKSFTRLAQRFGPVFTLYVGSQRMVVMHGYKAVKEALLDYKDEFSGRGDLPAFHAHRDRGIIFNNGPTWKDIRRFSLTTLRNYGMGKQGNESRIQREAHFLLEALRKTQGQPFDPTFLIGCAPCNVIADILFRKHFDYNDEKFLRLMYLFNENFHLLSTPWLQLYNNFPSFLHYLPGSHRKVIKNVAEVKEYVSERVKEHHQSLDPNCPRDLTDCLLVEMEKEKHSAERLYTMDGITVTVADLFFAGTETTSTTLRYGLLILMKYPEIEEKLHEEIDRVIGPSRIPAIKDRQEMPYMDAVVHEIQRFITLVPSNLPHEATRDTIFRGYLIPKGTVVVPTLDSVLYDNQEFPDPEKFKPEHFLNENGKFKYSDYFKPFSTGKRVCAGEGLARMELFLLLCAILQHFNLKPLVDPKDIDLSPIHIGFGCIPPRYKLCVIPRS

Sequence of D(3) dopamine receptor (P35462 whole entry): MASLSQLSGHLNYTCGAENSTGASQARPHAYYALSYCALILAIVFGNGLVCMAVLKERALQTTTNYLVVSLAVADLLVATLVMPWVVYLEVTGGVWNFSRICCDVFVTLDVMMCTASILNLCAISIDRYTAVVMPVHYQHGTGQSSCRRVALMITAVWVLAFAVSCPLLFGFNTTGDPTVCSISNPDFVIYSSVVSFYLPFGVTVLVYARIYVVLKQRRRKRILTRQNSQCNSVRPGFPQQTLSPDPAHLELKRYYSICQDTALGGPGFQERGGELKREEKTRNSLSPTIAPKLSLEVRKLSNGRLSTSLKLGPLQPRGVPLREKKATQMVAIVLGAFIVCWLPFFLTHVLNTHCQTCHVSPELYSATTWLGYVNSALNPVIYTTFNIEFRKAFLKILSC
Sequence of Cytochrome P450 2C19 (P33261 whole entry): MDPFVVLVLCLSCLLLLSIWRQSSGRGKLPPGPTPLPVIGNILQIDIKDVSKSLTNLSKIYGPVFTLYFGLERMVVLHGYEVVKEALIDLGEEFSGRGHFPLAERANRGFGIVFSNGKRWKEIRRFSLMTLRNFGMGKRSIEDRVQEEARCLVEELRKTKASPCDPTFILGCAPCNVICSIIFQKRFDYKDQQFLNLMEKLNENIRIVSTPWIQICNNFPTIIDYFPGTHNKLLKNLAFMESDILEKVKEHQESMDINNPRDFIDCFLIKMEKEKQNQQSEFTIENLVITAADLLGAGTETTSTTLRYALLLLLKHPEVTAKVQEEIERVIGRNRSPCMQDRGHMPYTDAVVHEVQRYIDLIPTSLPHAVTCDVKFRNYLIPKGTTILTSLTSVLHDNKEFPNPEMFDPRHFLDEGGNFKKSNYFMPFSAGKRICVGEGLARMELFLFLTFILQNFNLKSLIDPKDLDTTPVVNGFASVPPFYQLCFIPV
Sequence of Melanocortin receptor 3 (P41968 whole entry): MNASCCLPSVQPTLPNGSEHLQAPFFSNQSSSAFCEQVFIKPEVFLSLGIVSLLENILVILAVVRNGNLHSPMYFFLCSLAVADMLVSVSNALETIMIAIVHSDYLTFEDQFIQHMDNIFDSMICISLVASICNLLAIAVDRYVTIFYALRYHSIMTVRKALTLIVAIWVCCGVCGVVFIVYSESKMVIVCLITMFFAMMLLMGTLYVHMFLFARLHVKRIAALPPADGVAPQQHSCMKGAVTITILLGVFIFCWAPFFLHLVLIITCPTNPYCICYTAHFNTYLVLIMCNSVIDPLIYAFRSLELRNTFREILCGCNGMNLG
Sequence of 5-hydroxytryptamine receptor 4 (O70528 whole entry): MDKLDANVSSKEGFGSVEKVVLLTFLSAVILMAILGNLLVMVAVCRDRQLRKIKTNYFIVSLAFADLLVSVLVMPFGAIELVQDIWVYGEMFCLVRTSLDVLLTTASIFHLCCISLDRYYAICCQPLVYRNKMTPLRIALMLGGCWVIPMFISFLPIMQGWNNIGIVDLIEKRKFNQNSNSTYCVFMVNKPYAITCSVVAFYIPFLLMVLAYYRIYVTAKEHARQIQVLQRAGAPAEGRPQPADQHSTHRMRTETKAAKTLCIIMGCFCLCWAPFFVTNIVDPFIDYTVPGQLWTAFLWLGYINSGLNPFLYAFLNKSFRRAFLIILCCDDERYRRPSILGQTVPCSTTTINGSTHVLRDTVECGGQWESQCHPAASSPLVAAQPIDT

Compound | IC50 [1] | Ki [1] | IC50 [2] | IC50 [3] | Ki [3] | IC50 (Melanocortin receptor 3) | IC50 (D(3) dopamine receptor; cho) | IC50 (Cytochrome P450 2C19) | Ki (Cytochrome P450 2C19) | IC50 (Cytochrome P450 2E1) | Ki (Cytochrome P450 2E1) | IC50 ([1]; read-out: IC50) [nM] | Ki ([1]; read-out: Ki) [nM] | IC50 (D(3) dopamine receptor; read-out: IC50) [nM] | Ki (D(3) dopamine receptor; read-out: Ki) [nM] | Ki [2] | Ki (Melanocortin receptor 3) | Ki (D(3) dopamine receptor; cho)
C=CCO [ALLYL ALCOHOL] | Not Active | Not Active | Not Active | Not Active | Not Active | Not Active | Not Active | Not Active | Not Active | Not Active | Not Active | – | – | – | – | – | – | –
C[C@]12CC[C@@H](O)C[C@@H]1CC[C@@H]1[C@@H]2CC[C@]2(C)C(=O)CC[C@@H]12 [ANDROSTERONE] | Not Active | Not Active | Not Active | Not Active | Not Active | Not Active | Not Active | Not Active | Not Active | Not Active | Not Active | – | – | – | – | – | – | –
COc1ccc(Cl)cc1C(=O)NCCc1ccc(S(=O)(=O)NC(=O)NC2CCCCC2)cc1 [GLYBURIDE] | – | – | Not Active | Not Active | Not Active | Not Active | Not Active | Not Active | Not Active | Not Active | Not Active | 3.8 | 0.432 | – | – | – | – | –
CC(CN1c2ccccc2Sc2ccccc21)N(C)C (configuration not stated) [PROMETHAZINE] | Not Active | Not Active | Not Active | Not Active | Not Active | Not Active | – | Not Active | Not Active | Not Active | Not Active | – | – | 559 | 190 | – | – | –
C[N+](C)(C)CCOP(=O)([O-])OC[C@H](O)CO | Not Active | Not Active | Not Active | Not Active | Not Active | Not Active | Not Active | Not Active | Not Active | Not Active | Not Active | – | – | – | – | – | – | –
NCC(CC(=O)O)c1ccc(Cl)cc1 (configuration not stated) [BACLOFEN] | Not Active | Not Active | Not Active | Not Active | Not Active | Not Active | Not Active | Not Active | Not Active | Not Active | Not Active | – | – | – | – | – | – | –
CC12CCC(CC1=O)C2(C)C (configuration not stated) [CAMPHOR] | Not Active | Not Active | Not Active | Not Active | Not Active | Not Active | Not Active | Not Active | Not Active | Not Active | Not Active | – | – | – | – | – | – | –
POVIDONE | Not Active | Not Active | Not Active | Not Active | Not Active | Not Active | Not Active | Not Active | Not Active | Not Active | Not Active | – | – | – | – | Not Active | Not Active | Not Active
CN(Cc1cc(Br)cc(Br)c1N)C1CCCCC1 [BROMHEXINE] | Not Active | Not Active | Not Active | Not Active | Not Active | Not Active | Not Active | Not Active | Not Active | Not Active | Not Active | – | – | – | – | – | – | –
Cc1ccnc2c1NC(=O)c1cccnc1N2C1CC1 [NEVIRAPINE] | Not Active | Not Active | Not Active | Not Active | Not Active | Not Active | Not Active | Not Active | Not Active | Not Active | Not Active | – | – | – | – | – | – | –
CCN1CCN(C(=O)N[C@@H](C(=O)N[C@@H]2C(=O)N3[C@@H]2SC(C)(C)[C@@H]3C(=O)O)c2ccccc2)C(=O)C1=O [PIPERACILLIN] | Not Active | Not Active | Not Active | Not Active | Not Active | Not Active | Not Active | Not Active | Not Active | Not Active | Not Active | – | – | – | – | – | – | –
O=C(O)c1ccccc1 [BENZOIC ACID] | Not Active | Not Active | Not Active | Not Active | Not Active | Not Active | Not Active | Not Active | Not Active | Not Active | Not Active | – | – | – | – | – | – | –
CC[C@H]1OC(=O)[C@H](C)[C@@H](O[C@H]2C[C@@](C)(OC)[C@@H](O)[C@H](C)O2)[C@H](C)[C@@H](O[C@@H]2O[C@H](C)C[C@H](N(C)C)[C@H]2O)[C@](C)(O)C[C@@H](C)C(=O)[C@H](C)[C@@H](O)[C@]1(C)O [ERYTHROMYCIN] | Not Active | Not Active | Not Active | Not Active | Not Active | Not Active | Not Active | Not Active | Not Active | Not Active | Not Active | – | – | – | – | – | – | –
